Assay results published in US11052092B2, “N-{[2-(piperidin-1-yl)phenyl](phenyl)methyl}-2-(3-oxo-3,4-dihydro-2H-1,4-benzoxazin-7-yl)acetamide derivatives and related compounds as ROR-gamma modulators for treating autoimmune diseases” (Genfit, priority 2017, dated 2021).

What was measured:
[1] = test system: Murine EL-4 lymphoma cell line overexpressing human RORγt; experiment: IL-17 secretion from EL4 murine lymphoma; assay type: cell-based; settings: Mus musculus; human RORγt-transfected EL4 cells, PMA (10 ng/mL) and ionomycin (1 μM), 24 h; read-out: IC50, IL-17 secretion inhibition
Summary of the method: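 EL-4 cells electroporated with hRORγt plasmid, seeded at 150000 cells/well and pretreated with compound for 24 h, then stimulated with PMA (10 ng/mL) plus ionomycin (1 μM final) with compound for a further 24 h at 37 °C. IL-17 in supernatant measured by HTRF or ELISA.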

human RORγt = target: T1, human RORγt (Homo sapiens, UniProt P51449); experiment: RORE Luciferase/RORγt transactivation assay; assay type: cell-based; settings: COS-7 cells transfected with human IL-17 promoter luciferase reporter and RORγt plasmid; 20 h with compound; read-out: IC50, RORγt activity inhibition
T1 construct: the full-length cDNA of human RORγt; expressed in transfected cells; host or cells: COS-7 (monkey kidney)
T1 sequence (P51449 1-497 isoform P51449-2): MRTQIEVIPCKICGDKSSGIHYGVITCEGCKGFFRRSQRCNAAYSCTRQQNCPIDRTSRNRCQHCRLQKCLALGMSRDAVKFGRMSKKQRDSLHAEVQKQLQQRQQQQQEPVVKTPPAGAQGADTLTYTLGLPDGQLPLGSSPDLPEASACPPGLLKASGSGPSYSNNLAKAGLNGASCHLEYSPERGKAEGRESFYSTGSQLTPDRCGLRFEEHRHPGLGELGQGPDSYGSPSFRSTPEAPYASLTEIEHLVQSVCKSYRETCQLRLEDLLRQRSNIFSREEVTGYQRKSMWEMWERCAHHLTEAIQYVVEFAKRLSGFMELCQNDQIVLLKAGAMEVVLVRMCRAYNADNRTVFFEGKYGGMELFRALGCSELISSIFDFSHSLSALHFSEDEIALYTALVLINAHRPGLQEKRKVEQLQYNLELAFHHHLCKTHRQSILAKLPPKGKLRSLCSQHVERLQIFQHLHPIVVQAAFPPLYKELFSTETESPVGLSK
Summary of the method: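 Transactivation read-out: luminescence (Steady-Glo, 30 min at room temperature) from COS-7 cells carrying a RORγt expression plasmid plus a 4.3 kb IL-17 promoter luciferase reporter. Compound exposure was in serum-free DMEM with 0.3% DMSO final. Reported values are IC50 (μM) and Emax (%).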

[2] = target: T2, RORγt ligand-binding domain (RORγt-LBD) (Homo sapiens, UniProt P51449); experiment: Time-resolved FRET (TR-FRET) RORγt coactivator assay; settings: GST-RORγ-LBD, biotinylated RIP140 peptide, 2 hours at room temperature
T2 construct: 20 nM recombinantly expressed RORγ-LBD fused to GST
T2 sequence (P51449 269-508 limits assumed): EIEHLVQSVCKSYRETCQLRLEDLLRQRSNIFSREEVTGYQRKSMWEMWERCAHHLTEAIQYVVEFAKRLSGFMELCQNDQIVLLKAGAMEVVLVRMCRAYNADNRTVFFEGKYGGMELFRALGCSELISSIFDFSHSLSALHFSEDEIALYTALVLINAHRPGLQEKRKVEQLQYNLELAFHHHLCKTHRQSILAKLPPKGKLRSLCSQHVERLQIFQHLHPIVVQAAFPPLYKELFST
Source text: Time-resolved FRET (TR-FRET) RORγt coactivator assay was used to identify RORγ modulator compounds with ligand-dependent coactivator displacement. The assay uses a d2-labeled anti-GST antibody, synthetic N-terminally biotinylated peptide which is derived from nuclear receptor coactivator protein RIP140, and a RORγt ligand-binding domain (RORγt-LBD) that is tagged with glutathione-S-transferase (GST). The influence of compounds on the RORγ-peptide interaction relies on the binding dependent energy transfer from a donor to an acceptor fluorophor attached to the binding partner of interest. […] For reduction of background from compound fluorescence, TR-FRET method makes use of generic fluorophore labels and time resolved detection.
The assays were done in a final volume of 20 μl in a 384 well plate in a CHAPS buffer (2 mM CHAPS; 1 mM DTT, 2 mM EDTA; 0.1% BSA), containing 20 nM recombinantly expressed RORγ-LBD fused to GST, 30 nM N-terminally biotinylated peptide, 1 nM streptavidin-terbium conjugate and 20 nM d2 labeled-anti-GST. Test compounds were diluted using 10 mM stock solution. The range of the final compound concentrations used in this test was from 0.3 nM to 30 μM (logarithmic scale). DMSO content of the samples was kept at 1%. The assay was equilibrated for 2 hours in the dark at room temperature in 384 well plates (Falcon). The signal was detected by an Ultra384 reader (TECAN). […] Compounds that promote coactivator displacement induce a concentration-dependent decrease in time-resolved fluorescent signal. Data were collected and analyzed using GraphPad Prism software (GraphPad Software V5.02, San Diego Calif. USA). IC50 in μM and Emax in % were reported for each compound.

multiple sclerosis model = settings: administered by injection; cited from earlier work
psoriasis model = settings: administered by injection; cited from earlier work
[3] = test system: patients with moderate to severe psoriasis; settings: cited from earlier work

SMILES | IC50 [1] [µM] | IC50 (human RORγt) [µM] | IC50 [2] [µM] | further results
Cc1ccc(C(NC(=O)Cc2ccc3[nH]cc(C)c3c2)c2ccc(C)o2)c(N2CCCCC2)c1 (stereo not shown) [Cpd. 64, 2-(3-methyl-1H-indol-5-yl)-N-{[4-methyl-2-(piperidin-1-yl)phenyl](5-methylfuran-2-yl)methyl}acetamide] | < 0.1 | 0.01 to 0.1 | 0.1 to 1 | –
Cc1ccc(C(NC(=O)C2(c3ccc4c(c3)CS(=O)(=O)N4)CC2)c2ccc(C)o2)c(N(C)C)c1 (stereo not shown) [Cpd. 71, N-{[2-(dimethylamino)-4-methylphenyl](5-methylfuran-2-yl)methyl}-1-(2,2-dioxo-1,3-dihydro-2,1-benzothiazol-5-yl)cyclopropane-1-carboxamide] | 0.1 to 1 | 0.01 to 0.1 | < 0.01 | –
Cc1ccc(C(NC(=O)C2(c3ccc4c(c3)CS(=O)(=O)C4)CC2)c2ccc(C)o2)c(C)c1 (stereo not shown) [Cpd. 74, N-[(2,4-dimethylphenyl)(5-methylfuran-2-yl)methyl]-1-(2,2-dioxo-1,3-dihydro-2-benzothiophen-5-yl)cyclopropane-1-carboxamide] | 0.1 to 1 | 0.01 to 0.1 | < 0.01 | –
Cc1ccc(C(NC(=O)Cc2ccc3[nH]c(C)nc3c2)c2ccc(C)o2)c(Br)c1 (stereo not shown) [Cpd. 77, N-[(2-bromo-4-methylphenyl)(5-methylfuran-2-yl)methyl]-2-(2-methyl-1H-1,3-benzodiazol-5-yl)acetamide] | 0.1 to 1 | 0.01 to 0.1 | < 0.01 | –
Cc1ccc(C(NC(=O)Cc2ccc3[nH]c(C)nc3c2)c2ccccc2)c(Br)c1 (stereo not shown) [Cpd. 81, N-[(2-bromo-4-methylphenyl)(phenyl)methyl]-2-(2-methyl-1H-1,3-benzodiazol-5-yl)acetamide] | 0.1 to 1 | 0.01 to 0.1 | 0.01 to 0.1 | melting point: 138 °C
Cc1ccc(C(NC(=O)Cc2ccc3[nH]c(C)nc3c2)c2ccccc2)c(N2CCCC2)c1 (stereo not shown) [Cpd. 82, 2-(2-methyl-1H-1,3-benzodiazol-5-yl)-N-{[4-methyl-2-(pyrrolidin-1-yl)phenyl](phenyl)methyl}acetamide] | 0.1 to 1 | 0.01 to 0.1 | 0.01 to 0.1 | –
Cc1ccc(C(NC(=O)C2(c3ccc4c(c3)CC(=O)N4)CC2)c2ccc(Cl)o2)c(C)c1 (stereo not shown) [Cpd. 86, N-[(5-chlorofuran-2-yl)(2,4-dimethylphenyl)methyl]-1-(2-oxo-2,3-dihydro-1H-indol-5-yl)cyclopropane-1-carboxamide] | < 0.1 | < 0.01 | < 0.01 | –
Cc1ccc(C(NC(=O)C2(c3ccc4c(c3)CS(=O)(=O)N4)CC2)c2ccc(Cl)o2)c(C)c1 (stereo not shown) [Cpd. 87, N-[(5-chlorofuran-2-yl)(2,4-dimethylphenyl)methyl]-1-(2,2-dioxo-1,3-dihydro-2,1-benzothiazol-5-yl)cyclopropane-1-carboxamide] | < 0.1 | 0.01 to 0.1 | < 0.01 | –
CCOc1nc2cc(CC(=O)NC(c3ccccc3)c3ccc(C)cc3Br)ccc2[nH]1 (stereo not shown) [Cpd. 90, N-[(2-bromo-4-methylphenyl)(phenyl)methyl]-2-(2-ethoxy-1H-1,3-benzodiazol-5-yl)acetamide] | 0.1 to 1 | 0.01 to 0.1 | 0.01 to 0.1 | –
CSc1ccc2cc(CC(=O)NC(c3ccc(C)o3)c3ccc(C)cc3N3CCCCC3)ccc2c1 (stereo not shown) [Cpd. 91, N-{[4-methyl-2-(piperidin-1-yl)phenyl](5-methylfuran-2-yl)methyl}-2-[6-(methylsulfanyl)naphthalen-2-yl]acetamide] | 0.1 to 1 | 0.01 to 0.1 | 0.1 to 1 | –
CCSc1nc2cc(CC(=O)NC(c3ccccc3)c3ccc(C)cc3Br)ccc2[nH]1 (stereo not shown) [Cpd. 92, N-[(2-bromo-4-methylphenyl)(phenyl)methyl]-2-[2-(ethylsulfanyl)-1H-1,3-benzodiazol-5-yl]acetamide] | 0.1 to 1 | 0.01 to 0.1 | 0.1 to 1 | –
Cc1ccc(C(NC(=O)Cc2ccc3[nH]cc(CCS(C)(=O)=O)c3c2)c2ccc(C)o2)c(N2CCCCC2)c1 (stereo not shown) [Cpd. 98, 2-[3-(2-methanesulfonylethyl)-1H-indol-5-yl]-N-{[4-methyl-2-(piperidin-1-yl)phenyl](5-methylfuran-2-yl)methyl}acetamide] | < 0.1 | 0.01 to 0.1 | 0.01 to 0.1 | –
Cc1ccc(C(NC(=O)Cc2ccc3c(ccn3C(=O)C3CCOCC3)c2)c2ccc(C)o2)c(N2CCCCC2)c1 (stereo not shown) [Cpd. 118, N-{[4-methyl-2-(piperidin-1-yl)phenyl](5-methylfuran-2-yl)methyl}-2-[1-(oxane-4-carbonyl)-1H-indol-5-yl]acetamide] | < 0.1 | 0.01 to 0.1 | 0.1 to 1 | melting point: 96 °C
Cc1ccc(C(NC(=O)C2(c3ccc4c(c3)OCS(=O)(=O)N4)CC2)c2ccc(C)o2)c(C)c1 (stereo not shown) [Cpd. 124, N-[(2,4-dimethylphenyl)(5-methylfuran-2-yl)methyl]-1-(2,2-dioxo-1,3-dihydro-4,2,1-benzoxathiazin-6-yl)cyclopropane-1-carboxamide] | 0.1 to 1 | 0.01 to 0.1 | < 0.01 | –
Cc1ccc(C(NC(=O)C2(c3ccc4c(c3)C(=O)C(=O)N4)CC2)c2ccc(C)o2)c(C)c1 (stereo not shown) [Cpd. 125, N-[(2,4-dimethylphenyl)(5-methylfuran-2-yl)methyl]-1-(2,3-dioxo-2,3-dihydro-1H-indol-5-yl)cyclopropane-1-carboxamide] | < 0.1 | 0.01 to 0.1 | < 0.01 | –
CC(=O)N1Cc2ccc(C3(C(=O)NC(c4ccc(C)o4)c4ccc(C)cc4C)CC3)cc2C1 (stereo not shown) [Cpd. 127, 1-(2-acetyl-2,3-dihydro-1H-isoindol-5-yl)-N-[(2,4-dimethylphenyl)(5-methylfuran-2-yl)methyl]cyclopropane-1-carboxamide] | < 0.1 | 0.01 to 0.1 | < 0.01 | –
Cc1ccc(C(NC(=O)C2(c3ccc4c(c3)CC(=O)N4C)CC2)c2ccc(C)o2)c(C)c1 (stereo not shown) [Cpd. 130, N-[(2,4-dimethylphenyl)(5-methylfuran-2-yl)methyl]-1-(1-methyl-2-oxo-2,3-dihydro-1H-indol-5-yl)cyclopropane-1-carboxamide] | < 0.1 | 0.01 to 0.1 | < 0.01 | –
CC(=O)Nc1nc(C)c(S(=O)(=O)Nc2ccc(C(O)(C(F)(F)F)C(F)(F)F)cc2)s1 [SR1001] | – | – | – | efficacy in multiple sclerosis model (multiple sclerosis model): efficacious
Cc1ccc([C@@H](NC(=O)Cc2ccc3oc([C@@H](O)c4c(C)noc4C)cc3c2)c2ccccc2)c(C)c1 [TMP778] | – | – | – | efficacy in psoriasis model (psoriasis model): efficacious
CCS(=O)(=O)c1ccc(CNC(=O)c2cnc3c(c2)CN(C[C@H]2CC[C@H](C(F)(F)F)CC2)[C@H]3C(C)C)nc1 [VTP-43742] | – | – | – | reduction in the Psoriasis Area Severity Index (PASI) score relative to placebo ([3]; 350 mg dose group): 24%; placebo-adjusted PASI score reduction ([3]; 700 mg dose group): 30%; plasma IL-17 levels ([3]; relative to placebo): reduced
